The record followed here is US7981896B2 (Athersys, Inc., priority 2006, dated 2011).

This test has as its target T1, human histamine H3 receptor (Homo sapiens, UniProt Q9Y5N1).
T1 construct: endogenous in cells; host or cells: HT1080-Gqαi5 RAGE clone (RAGE-H3), human fibrosarcoma line; integrated RAGE vector pFG8-HH3 supplies exon 1, the cell's own gene supplies the other exons
In words: Competition radioligand binding assay with [125I]iodoproxyfan on membranes of RAGE-H3 (HT1080-Gqαi5) cells expressing human H3 receptor. Conditions: ~0.15 nM [125I]iodoproxyfan, 1.5 hrs at room temperature, head does not name the quantity (apparent Ki by Cheng-Prussof). Here is the method:
Representative compounds of the present invention that were prepared by the procedures of Examples 1-83 were evaluated in binding assays against cells expressing human H3 receptor by the following procedure.
[^125I]iodoproxyfan (2000 Ci/mmol) was obtained from Amersham Bioscience (Piscataway, N.J.). All other chemicals were either from Sigma-Aldrich (St. Louis, Mo.) or Tocris Cookson Inc. (Ellisville, Mo.).
The human histamine H3 receptor was stably expressed in HT1080 cells containing the chimeric G-protein, Gq[…]i5 (Coward et al., Anal Biochem 1999; 270:242-8). HT1080-Gqαi5 cells were grown in alpha-modified MEM containing 10% fetal bovine serum and 7 μg/ml blasticidin at 37° C. in 5% CO2/95% atmosphere. Cells (4.8×10^9) were irradiated with 50 rads from a ^137Cs source and the pFG8-HH3 RAGE (Random Activation of Gene Expression; see Harrington et al., Nature Biotechnology. 2001; 19:440-45) vector was subsequently integrated into the cells via electroporation (250V, 600 μF, 50Ω). The RAGE vector pFG8-HH3 contained cDNA sequence coding for the first exon (83 amino acids) of human H3 receptor. After electroporation, cells were plated in T75 flasks and grown in alpha-modified MEM. The culture medium was replaced 48 hrs after electroporation with alpha-modified MEM, 10% fetal bovine serum, 500 μg/ml hygromycin B and 3 μg/ml puromycin. Medium was replaced every four days during cell expansion. To identify RAGE activated cells expressing the H3 receptor, pools of approximately 10,000 colonies (5×10^7-1.5×10^8 cells total) were screened by PCR for the desired gene product (using primers specific to the RAGE vector and exon 2 of the H3 receptor). […] Positive 100 cells/well pools were identified by PCR, confirmed by sequencing, and subsequently subcloned to 0.8 cells/well. Once clones expressing the H3 receptor were identified by PCR analysis, assays (FLIPR or radioligand binding) were performed to confirm that the activated gene produced functional protein. The protein expression in the initial clones obtained from the RAGE library was increased by growth in the presence of methotrexate. Since the integrated RAGE vector contains the DHFR gene, such treatment selects for cells that have amplified the genetic locus containing the RAGE insert. Subclones obtained after methotrexate amplification were tested for functional activity in FLIPR assays to identify the clone that was most suitable for HTS. The final HT1080-Gqαi5 RAGE clone (RAGE-H3) expressing the human histamine H3 receptor was grown in alpha-modified MEM containing 10% fetal bovine serum, 3 μg/ml puromycin, 500 μg/ml hygromycin B, 3.2 μM methotrexate at 37° C. in 5% CO2/95% atmosphere.
RAGE-H3 cells (10^9) were washed twice with cold PBS, scraped off the plates, and centrifuged at 1000×g for 5 minutes. Cells were resuspended in ice-cold 10 mM Tris HCl, pH 7.4, containing 5 mM EDTA and protease inhibitor cocktail tablets (Roche Molecular Biochemicals). After incubating on ice for 10 min, the cells were homogenized with a dounce homogenizer or a polytron tissue grinder, and centrifuged at 1000×g for 10 min at 4° C. The resulting supernatant was centrifuged at 32,000×g for 30 min at 4° C. The membrane pellets were resuspended in 50 mM Tris HCl, pH 7.4, and stored at −80° C. until use. Protein concentration was determined by the Bradford method (Bio-Rad Laboratories, CA).
Binding assays were carried out in 96-well polypropylene plates in 50 mM Tris HCl, pH 7.4, containing 1 mM EDTA. Reaction mixtures contained 100 μl of membrane suspension, 50 μl of 4% DMSO, and 50 μl of increasing amounts of [^125I]iodoproxyfan (final concentration 0.0005-1.8 nM for human H3 receptor saturation binding assay). Nonspecific binding was defined by adding 10 μM clobenpropit to the reaction mixtures. […]

T1 sequence (Q9Y5N1 whole entry): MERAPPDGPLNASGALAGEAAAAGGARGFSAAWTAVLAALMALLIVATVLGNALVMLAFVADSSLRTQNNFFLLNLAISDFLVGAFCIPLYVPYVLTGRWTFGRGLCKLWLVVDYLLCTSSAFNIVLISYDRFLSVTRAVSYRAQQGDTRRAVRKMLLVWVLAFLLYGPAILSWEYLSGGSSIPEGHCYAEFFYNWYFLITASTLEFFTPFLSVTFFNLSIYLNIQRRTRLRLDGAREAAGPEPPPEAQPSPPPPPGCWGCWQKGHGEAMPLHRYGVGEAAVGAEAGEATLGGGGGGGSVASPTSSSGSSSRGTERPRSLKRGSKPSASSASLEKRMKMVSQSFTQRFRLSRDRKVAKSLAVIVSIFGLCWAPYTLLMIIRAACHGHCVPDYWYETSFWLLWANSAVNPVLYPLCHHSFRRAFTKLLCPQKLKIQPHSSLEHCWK

In the case of `Cc1cc(CC(C)C)nn1-c1ccc(OCCCN2CCCC2)cc1` [Example 31], the Ki is below 10 nM.
Then `Cc1cc(C(=O)NC2CCCCC2)n(-c2ccc(OC3CCN(C(C)C)CC3)cc2)n1` [Example 12, 2-[4-(1-Isopropylpiperidin-4-yloxy)phenyl]-5-methyl-2H-pyrazole-3-carboxylic acid cyclohexylamide], with below 10 nM.
`CCc1cc(CC)n(-c2ccc(OCCCN3CCOCC3)cc2)n1` [Example 23, 3,5-Diethyl-1-[4-(3-morpholin-1-ylpropoxy)phenyl]-1H-pyrazole]: the Ki was below 1000 nM.
For `CN(C)C1CCN(CCCOc2ccc(-n3nc(C(F)(F)F)cc3-c3ccccc3)cc2)C1` (stereo not shown) [Example 52, Dimethyl-(1-{3-[4-(5-phenyl-3-trifluoromethyl-pyrazol-1-yl)-phenoxy]-propyl}-pyrrolidin-3-yl)-amine], the Ki was below 10000 nM.
In the case of `CC(C)(C)c1cc(-c2ccccc2)n(-c2ccc(OCCCN3CCCC3)cc2)n1` [Example 42, 3-tert-Butyl-5-phenyl-1-[4-(3-pyrrolidin-1-ylpropoxy)phenyl]-1H-pyrazole], the Ki is below 10 nM.
In the case of `c1ccc2nn(-c3ccc(OCCCN4CCCC4)cc3)cc2c1` [Example 18, 2-[4-(3-Pyrrolidin-1-ylpropoxy)phenyl]-2H-indazole] it was below 100 nM; in that of `Cc1cc(C(C)(C)C)nn1-c1ccc(OCCCN2CCCC2)cc1` [Example 26, 3-tert-Butyl-5-methyl-1-[4-(3-pyrrolidin-1-ylpropoxy)-phenyl]-1H-pyrazole], below 10 nM.
In the case of `Cc1nn(-c2ccc(OCCCN3CCCC3)cc2)c2c1CC[C@@H]1CCCC[C@@H]21` (relative stereo) [Example 5, 3-Methyl-1-[4-(3-pyrrolidin-1-ylpropoxy)phenyl]-4,5,5a,6,7,8,9,9a-octahydro-1H-benzo[g]indazole] it was below 1 nM.
`Cc1cc(C(=O)N2CCCC2)n(-c2ccc(OCCCN3CCCC3)cc2)n1` [Example 78, {5-Methyl-2-[4-(3-pyrrolidin-1-ylpropoxy)phenyl]-2H-pyrazol-3-yl}pyrrolidin-1-ylmethanone]: the Ki is below 10 nM.
As for `C[C@@H]1CCCN1CCCOc1ccc(-n2nc(C(F)(F)F)cc2-c2ccccc2)cc1` [Example 51, 1-{4-[3-(2-(R)-Methyl-pyrrolidin-1-yl)-propoxy]-phenyl}-5-phenyl-3-trifluoromethyl-1H-pyrazole], the Ki was below 100 nM.
As for `FC(F)(F)c1cc(/C=C/c2ccccc2)n(-c2ccc(OCCCN3CCCC3)cc2)n1` [Example 4, 1-[4-(3-Pyrrolidin-1-ylpropoxy)phenyl]-5-styryl-3-trifluoromethyl-1H-pyrazole], the Ki is below 100 nM.
For `FC(F)(F)c1cc(-c2cc3ccccc3o2)n(-c2ccc(OCCCN3CCCC3)cc2)n1` [Example 63, 5-Benzofuran-2-yl-1-[4-(3-pyrrolidin-1-ylpropoxy)phenyl]-3-trifluoromethyl-1H-pyrazole], the Ki was below 100 nM.
On to `Cc1c2c(nn1-c1ccc(OCCCN3CCCC3)cc1)CCCC2` [Example 56, 3-Methyl-2-[4-(3-pyrrolidin-1-yl-propoxy)-phenyl]-4,5,6,7-tetrahydro-2H-indazole], for which the Ki was below 1 nM.
Consider `CCCCc1c(C)nn(-c2ccc(OCCCN3CCCC3)cc2)c1C` [Example 38, 4-Butyl-3,5-dimethyl-1-[4-(3-pyrrolidin-1-ylpropoxy)phenyl]-1H-pyrazole], for which the Ki was below 10 nM.
As to `Cc1cc(C(=O)NC2CCCCC2)n(-c2ccc(OCCCN3CCCC3)cc2)n1` [Example 73, 5-Methyl-2-[4-(3-pyrrolidin-1-yl-propoxy)-phenyl]-2H-pyrazole-3-carboxylic acid cyclohexylamide], the Ki was below 1 nM.
As to `Cc1nn(-c2ccc(OCCCN3CCCC3)cc2)c2c1CCCC2` [Example 55, 3-Methyl-1-[4-(3-pyrrolidin-1-yl-propoxy)-phenyl]-4,5,6,7-tetrahydro-1H-indazole], the Ki was below 10 nM.
